In the supplement of paper PMC11451515:

Experiments:
Details in all cases: 48 h
P12-Ichikawa [1] = test: cell viability relative to DMSO control; higher = less cytotoxic
Method in brief: (§1)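 Viability, reported as a per-plate percentage of DMSO wells with cell-free wells as background, came from CellTiter-Glo One luminescence. Reading took place after 48 h at 37°C. Before that, NOMO1 or SEM (500 cells/well) or P12-Ichikawa (1000 cells/well) leukemia cells, adapted for at least four passages in each medium, were seeded in 1536-well plates (5 μl) and pin-dosed with library compounds in DMSO, 47 μM to 0.79 nM over 11 threefold points.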

SEM cells [2] = test: as above
Method in brief: as §1

NOMO1 [3] = test: as above
Method in brief: as §1

P12-Ichikawa [4] = test: AUC of viability dose-response curve (% viability x log10 dose units); higher = less sensitive
Method in brief: (§2)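 In 1536-well plates, leukemia cells adapted to each medium (500 or 1000 cells/well) were exposed for 48 h at 37°C to library compounds in DMSO across 11 threefold doses, 47 μM down to 0.79 nM. Viability was read by CellTiter-Glo One luminescence and normalised per plate to DMSO and cell-free wells. A four-parameter log-logistic fit over log10 doses was integrated by trapezoidal rule. This yielded the area under the curve, with over-full-viability curves scaled and quality-control failures dropped.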

SEM cells [5] = test: as above
Method in brief: as §2

NOMO1 [6] = test: as above
Method in brief: as §2

CO[C@@H]1C(N(C)C(=O)c2ccccc2)C[C@H]2O[C@]1(C)n1c3ccccc3c3c4c(c5c6ccccc6n2c5c31)C(=O)NC4=O (some centres not stated)
cell viability [%]
Details | NOMO1 [3] | P12-Ichikawa [1] | SEM cells [2]
HPLM + 10% dialyzed FBS, 0.000781 µM | 82.2 | 84.9 | 70.6
HPLM + 10% dialyzed FBS, 0.00234 µM | 105 | 88.1 | 69.4
HPLM + 10% dialyzed FBS, 0.00702 µM | 90.2 | 93.3 | 95.4
HPLM + 10% dialyzed FBS, 0.0211 µM | 106 | 92.3 | 89.2
HPLM + 10% dialyzed FBS, 0.0632 µM | 98.1 | 91 | 75.8
HPLM + 10% dialyzed FBS, 0.19 µM | 104 | 97.7 | 92.6
HPLM + 10% dialyzed FBS, 0.569 µM | 98.3 | 99 | 90
HPLM + 10% dialyzed FBS, 1.71 µM | 101 | 91.2 | 80.5
HPLM + 10% dialyzed FBS, 5.12 µM | 58.4 | 90 | 40.3
HPLM + 10% dialyzed FBS, 15.4 µM | 40.4 | 46 | 14.7
HPLM + 10% dialyzed FBS, 46.1 µM | 10.2 | 25.9 | 7.83
RPMI 5 mM glucose + 10% FBS, 0.000781 µM | 76.8 | 78.8 | 68.2
RPMI 5 mM glucose + 10% FBS, 0.00234 µM | 90.2 | 87.8 | 66.2
RPMI 5 mM glucose + 10% FBS, 0.00702 µM | 83.1 | 88.7 | 92.1
RPMI 5 mM glucose + 10% FBS, 0.0211 µM | 91 | 90.9 | 91.2
RPMI 5 mM glucose + 10% FBS, 0.0632 µM | 88.4 | 97.4 | 86.5
RPMI 5 mM glucose + 10% FBS, 0.19 µM | 104 | 87 | 86.1
RPMI 5 mM glucose + 10% FBS, 0.569 µM | 87 | 84.8 | 75.1
RPMI 5 mM glucose + 10% FBS, 1.71 µM | 89.3 | 90.2 | 47.7
RPMI 5 mM glucose + 10% FBS, 5.12 µM | 53.5 | 73.4 | 19.4
RPMI 5 mM glucose + 10% FBS, 15.4 µM | 47.7 | 27.1 | 10.7
RPMI 5 mM glucose + 10% FBS, 46.1 µM | 8.01 | 32.5 | 7.46
RPMI 5 mM glucose + 10% dialyzed FBS, 0.000781 µM | 71.5 | 78.9 | 81.5
RPMI 5 mM glucose + 10% dialyzed FBS, 0.00234 µM | 78.8 | 84.4 | 84.1
RPMI 5 mM glucose + 10% dialyzed FBS, 0.00702 µM | 78 | 91 | 91.7
RPMI 5 mM glucose + 10% dialyzed FBS, 0.0211 µM | 91.7 | 91.9 | 79.6
RPMI 5 mM glucose + 10% dialyzed FBS, 0.0632 µM | 85.1 | 82.9 | 82.7
RPMI 5 mM glucose + 10% dialyzed FBS, 0.19 µM | 85.4 | 90.1 | 102
RPMI 5 mM glucose + 10% dialyzed FBS, 0.569 µM | 75.3 | 83 | 79.7
RPMI 5 mM glucose + 10% dialyzed FBS, 1.71 µM | 90.6 | 84.8 | 74.4
RPMI 5 mM glucose + 10% dialyzed FBS, 5.12 µM | 42.7 | 87.8 | 35.7
RPMI 5 mM glucose + 10% dialyzed FBS, 15.4 µM | 49.1 | 23.2 | 13.2
RPMI 5 mM glucose + 10% dialyzed FBS, 46.1 µM | 8.58 | 32.7 | 8.6

AUC of viability dose-response curve
Details | HPLM + 10% dialyzed FBS | RPMI 5 mM glucose + 10% FBS | RPMI 5 mM glucose + 10% dialyzed FBS
P12-Ichikawa [4] | 401 | 372 | 369
SEM cells [5] | 324 | 289 | 327

CCCCN(CCCC)C(=O)CN1C[C@H](c2ccc3c(c2)OCO3)[C@@H](C(=O)O)[C@@H]1c1ccc(OC)cc1
cell viability [%]
Details | HPLM + 10% dialyzed FBS | RPMI 5 mM glucose + 10% FBS | RPMI 5 mM glucose + 10% dialyzed FBS
P12-Ichikawa [1], 0.000781 µM | 112 | 107 | –
P12-Ichikawa [1], 0.00234 µM | 111 | 122 | –
P12-Ichikawa [1], 0.00702 µM | 113 | 115 | –
P12-Ichikawa [1], 0.0211 µM | 70.2 | 61.9 | –
P12-Ichikawa [1], 0.0632 µM | 116 | 112 | –
P12-Ichikawa [1], 0.19 µM | 114 | 122 | –
P12-Ichikawa [1], 0.569 µM | 107 | 123 | –
P12-Ichikawa [1], 1.71 µM | 114 | 118 | –
P12-Ichikawa [1], 5.12 µM | 106 | 36.1 | –
P12-Ichikawa [1], 15.4 µM | 104 | 105 | –
P12-Ichikawa [1], 46.1 µM | 88.4 | 99.9 | –
SEM cells [2], 0.000781 µM | 98.6 | – | 112
SEM cells [2], 0.00234 µM | 107 | – | 112
SEM cells [2], 0.00702 µM | 114 | – | 125
SEM cells [2], 0.0211 µM | 98.2 | – | 84.8
SEM cells [2], 0.0632 µM | 103 | – | 116
SEM cells [2], 0.19 µM | 105 | – | 127
SEM cells [2], 0.569 µM | 106 | – | 109
SEM cells [2], 1.71 µM | 92.5 | – | 106
SEM cells [2], 5.12 µM | 28.4 | – | 74.8
SEM cells [2], 15.4 µM | 55.3 | – | 75.8
SEM cells [2], 46.1 µM | 63.4 | – | 67

AUC of viability dose-response curve
Details | HPLM + 10% dialyzed FBS | RPMI 5 mM glucose + 10% FBS | RPMI 5 mM glucose + 10% dialyzed FBS
NOMO1 [6] | 457 | 470 | 464
SEM cells [5] | 408 | 427 | 432

CC(=O)OC\C1=C(\[N@]2[C@@H](SC1)[C@H](N)C2=O)C(O)=O
SEM cells [2], HPLM + 10% dialyzed FBS
Details | cell viability [%]
0.000781 µM | 104
0.00234 µM | 111
0.00702 µM | 119
0.0211 µM | 120
0.0632 µM | 123
0.19 µM | 141
0.569 µM | 129
1.71 µM | 138
5.12 µM | 125
15.4 µM | 126
46.1 µM | 97.1

AUC of viability dose-response curve
Details | NOMO1 [6] | P12-Ichikawa [4] | SEM cells [5]
HPLM + 10% dialyzed FBS | 330 | 346 | 462
RPMI 5 mM glucose + 10% FBS | 306 | 348 | 473
RPMI 5 mM glucose + 10% dialyzed FBS | 324 | 370 | 470

CC(=O)Nc1sc2c(c1-c1nc3ccccc3s1)CNC2
AUC of viability dose-response curve
Details | NOMO1 [6] | P12-Ichikawa [4] | SEM cells [5]
HPLM + 10% dialyzed FBS | 386 | 463 | 437
RPMI 5 mM glucose + 10% FBS | 462 | 452 | 443
RPMI 5 mM glucose + 10% dialyzed FBS | 384 | 453 | 439

Nc1nc(F)nc2c1ncn2[C@@H]1O[C@H](CO)[C@@H](O)[C@H]1O
SEM cells [2], RPMI 5 mM glucose + 10% FBS
Details | cell viability [%]
0.000781 µM | 114
0.00234 µM | 119
0.00702 µM | 125
0.0211 µM | 141
0.0632 µM | 115
0.19 µM | 13.2
0.569 µM | 10.9
1.71 µM | 7.49
5.12 µM | 6.64
15.4 µM | 6.09
46.1 µM | 6.22

AUC of viability dose-response curve
Details | NOMO1 [6] | P12-Ichikawa [4] | SEM cells [5]
HPLM + 10% dialyzed FBS | 283 | 293 | 228
RPMI 5 mM glucose + 10% FBS | 291 | 293 | 229
RPMI 5 mM glucose + 10% dialyzed FBS | 279 | 282 | 217

COC(=O)/C=C/C(=O)OC
SEM cells [2], HPLM + 10% dialyzed FBS
Details | cell viability [%]
0.000781 µM | 118
0.00234 µM | 126
0.00702 µM | 106
0.0211 µM | 119
0.0632 µM | 135
0.19 µM | 135
0.569 µM | 126
1.71 µM | 124
5.12 µM | 60
15.4 µM | 43.8
46.1 µM | 43.3

AUC of viability dose-response curve
Details | NOMO1 [6] | P12-Ichikawa [4] | SEM cells [5]
HPLM + 10% dialyzed FBS | 433 | 323 | 406
RPMI 5 mM glucose + 10% FBS | 402 | 368 | 354
RPMI 5 mM glucose + 10% dialyzed FBS | 413 | 352 | 376

CC1=C(CC/C(C)=C/CCC2=CCC(C3=CC(=O)OC3O)OC2O)C(C)(C)CCC1 (configuration not stated)
cell viability [%], SEM cells [2]
Details | HPLM + 10% dialyzed FBS | RPMI 5 mM glucose + 10% dialyzed FBS
0.000781 µM | 115 | 121
0.00234 µM | 129 | 124
0.00702 µM | 114 | 119
0.0211 µM | 129 | 112
0.0632 µM | 46.6 | 27.5
0.19 µM | 125 | 132
0.569 µM | 138 | 148
1.71 µM | 127 | 115
5.12 µM | 71.4 | 54
15.4 µM | 107 | 140
46.1 µM | 106 | 129

AUC of viability dose-response curve
Details | HPLM + 10% dialyzed FBS | RPMI 5 mM glucose + 10% FBS | RPMI 5 mM glucose + 10% dialyzed FBS
NOMO1 [6] | 434 | 469 | 466
P12-Ichikawa [4] | 457 | 434 | 443

CC1COC2=C3N1\C=C(C(O)=O)/C(=O)C3=CC(=C2N4CCN(C)CC4)F (configuration not stated)
cell viability [%], SEM cells [2]
Details | HPLM + 10% dialyzed FBS | RPMI 5 mM glucose + 10% FBS
0.000781 µM | 119 | 111
0.00234 µM | 128 | 124
0.00702 µM | 122 | 125
0.0211 µM | 122 | 136
0.0632 µM | 121 | 142
0.19 µM | 125 | 118
0.569 µM | 128 | 117
1.71 µM | 119 | 122
5.12 µM | 118 | 117
15.4 µM | 120 | 106
46.1 µM | 119 | 115

AUC of viability dose-response curve
Details | NOMO1 [6] | P12-Ichikawa [4] | SEM cells [5]
HPLM + 10% dialyzed FBS | 459 | 463 | 470
RPMI 5 mM glucose + 10% FBS | 443 | 452 | 453
RPMI 5 mM glucose + 10% dialyzed FBS | 446 | 438 | 463

CN1CC(=O)\N=C1\NC(=O)NC2=CC(=CC=C2)Cl
AUC of viability dose-response curve
Details | NOMO1 [6] | P12-Ichikawa [4] | SEM cells [5]
HPLM + 10% dialyzed FBS | 452 | 442 | 448
RPMI 5 mM glucose + 10% FBS | 453 | 459 | 471
RPMI 5 mM glucose + 10% dialyzed FBS | 468 | 463 | 457
